Our source for the GI50 and TGI values is PubChem BioAssay (NCI).

Usually GI50 stands for the concentration giving 50% growth inhibition. The TGI is the concentration giving total growth inhibition.

Holding throughout (assay): DTP human tumour cell line panel, 48 h
The subject of experiment [1] is UO-31 renal.
In experiment [2] the test system is SK-MEL-5 melanoma.
Experiment [3] deals with PC-3 prostate.
Experiment [4] relates to OVCAR-5 ovarian.
For experiment [5], the system named is TK-10 renal.
The test system of experiment [6] is A498 renal.
Experiment [7] deals with SK-OV-3 ovarian.
Experiment [8] deals with SK-MEL-2 melanoma.
Experiment [9] deals with MCF7 breast.
For experiment [10], the system named is LOX IMVI melanoma.

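Test compounds were applied to cells in 96-well plates for 48 hours at 5 doses. GI50: concentration for 50% inhibition of growth. Definition used: TGI = concentration required for complete inhibition of growth.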 Some results are limits rather than exact numbers.

Take `COc1cc(/C=C/C(=O)c2ccc(SC)cc2)cc(OC)c1OC`: the GI50 is 10.8 µM in experiment [1]; 12 µM in experiment [2]; 14.2 µM in [3]; 20.6 µM in experiment [4]; 18 µM in experiment [5]; 0.936 µM in experiment [6]. The results for the GI50 in experiment [7], in [8] and in experiment [9] were 15.8 µM, 17 µM and 5.22 µM, respectively. In addition, the TGI turned out to be 23 µM in [1]; 24.5 µM in [2]; 95.3 µM in experiment [3]; 35.6 µM in [4]; 33.5 µM in experiment [5]; 17.1 µM in [6]. Besides, the TGI was determined as 30.6 µM in experiment [7], 31.6 µM in experiment [8] and 24.1 µM in [9].

Turning to `C=C(C=O)[C@@H]1CC=C(C=O)CC1`, the GI50 in experiment [1] is 5.3 µM; in [2], 3.9 µM; in [3] it was 4.12 µM; in experiment [4], 26.5 µM; in [5] it was 8.76 µM; in experiment [6], 28.8 µM. Further, the GI50 in experiment [7] is 20.1 µM; in [8], 25.6 µM; in experiment [9] it was 2.96 µM. The TGI is greater than 76 µM in experiment [1]; greater than 46.5 µM in experiment [2]; 24.2 µM in [3]; 73 µM in experiment [4]; 54.6 µM in experiment [5]; 77.8 µM in experiment [6]. The results for the TGI in experiment [7], in experiment [8] and in experiment [9] were 50.5 µM, 92.5 µM and greater than 35.5 µM, respectively.

With `Cc1cc(=O)[nH]c2c1C(=O)C(=O)C=C2`, the GI50 is 77.3 µM in experiment [1]; 16.7 µM in experiment [2]; 71 µM in experiment [3]; 41.3 µM in [4]; 64.1 µM in experiment [5]; greater than 100 µM in [7]. Also, the GI50 was greater than 100 µM in experiment [8] and 29 µM in experiment [9]. Further, the TGI was greater than 100 µM in experiment [1]; 36.9 µM in experiment [2]; greater than 100 µM in experiment [3]; greater than 100 µM in experiment [4]; greater than 100 µM in [5]; greater than 100 µM in experiment [7]. The TGI was greater than 100 µM in [8] and 60.6 µM in experiment [9].

In the case of `Nc1c(S(=O)(=O)O)cc2c(c1Cl)C(=O)c1ccccc1C2=O`, the GI50 in experiment [1], in experiment [2], in experiment [3], in [4], in experiment [5] and in experiment [10] was greater than 100 µM throughout. The GI50 in experiment [6], in experiment [7] and in [9] was greater than 100 µM each time. In addition, the TGI in experiment [1], in experiment [2], in [3], in experiment [4], in experiment [5] and in experiment [10] was greater than 100 µM each time. Moreover, the TGI in experiment [6], in experiment [7] and in experiment [9] was greater than 100 µM each time.

On to `O=C(O)c1cccc(F)c1C(=O)c1ccc2ccccc2c1`, for which the concentration for total growth inhibition (TGI) in [1], in experiment [3], in experiment [4], in experiment [5], in experiment [10] and in experiment [6] was greater than 100 µM each time. In addition, the TGI in [7], in [8] and in experiment [9] was greater than 100 µM each time.

Take `CC/C(=C(/c1ccc(Cl)cc1)c1ccc(OCCCN(C)C)cc1)c1ccc(OC)cc1`: the GI50 is 5.3 µM in experiment [1]; 1.12 µM in experiment [3]; 6.54 µM in experiment [4]; 6.23 µM in [5]; 0.868 µM in experiment [10]; 5.5 µM in [6]. In addition, the values for the GI50 in experiment [7], in experiment [8] and in experiment [9] were 10.2 µM, 8.01 µM and 1.05 µM, respectively. For the same molecule, the TGI in [1] stood at 11.8 µM; in experiment [3] it was 2.71 µM; in [4] it was 14.2 µM; in [5] it was 13 µM; in [10] it was 1.64 µM; in [6] it was 12.1 µM. The TGI in [7] stood at 17.5 µM; in experiment [8], 15.6 µM; in experiment [9], 5.89 µM.

`COc1ccc2c(C(=O)NCCCCCC(=O)O)cc3cc4c(cc3c2c1)OCO4`: the GI50 in experiment [2], in experiment [3], in experiment [4], in [5], in experiment [10] and in [6] was greater than 100 µM each time. Also, the GI50 in experiment [7] and in [9] was greater than 100 µM each time. Moreover, the TGI in experiment [2], in experiment [3], in experiment [4], in experiment [5], in experiment [10] and in experiment [6] was greater than 100 µM in each case. The TGI in experiment [7] and in experiment [9] was greater than 100 µM throughout.
